Tested on in the first series: not given
Test: not given
Settings: not given
For the compound `CCc1cc2ccc(C(C)(C#N)CC3COc4ccccc4O3)cc2[nH]c1=O` (single isomer, unassigned) [Compound 48], the melting point (as a rule, the temperature, or range, at which the solid turns liquid) is 241 °C.
Still for that read-out and setting: as for `CCc1cc2ccc(C(C)(C#N)Cc3cccc(C(=O)O)c3)cc2[nH]c1=O` (stereo not drawn) [Compound 10], the figure is greater than 260 °C.
`CCc1cc2ccc(C(C)(C#N)Cc3cccc(-c4nc(C)no4)c3)cc2[nH]c1=O` (stereo not drawn) [Compound 11]: the melting point stood at 152 °C.
The same measure, in the same setting: in the case of `CCc1cc2ccc(C(C)(C#N)Cc3cccc(C(=O)OC)c3)cc2[nH]c1=O` (stereo not drawn) [Compound 12] it was 140 °C; in that of `CCc1cc2ccc(C(C)(C#N)Cc3cccc(C(=O)NC)c3)cc2[nH]c1=O` (stereo not drawn) [Compound 13], 182 °C.
The same measure, in the same setting: in the case of `CCc1cc2ccc(C(C)(C#N)Cc3cccc(NS(C)(=O)=O)c3)cc2[nH]c1=O` (stereo not drawn) [Compound 14] it was 80 °C; in that of `CCc1cc2ccc(C(C)(C#N)Cc3cccc(N)c3)cc2[nH]c1=O` (stereo not drawn) [Compound 15], 187 °C.
Same read-out and setting: as for `CCc1cc2ccc(C(C)(C#N)Cc3cccc(NC(=O)N4CCOCC4)c3)cc2[nH]c1=O` (stereo not drawn) [Compound 16], the figure is 121 °C; as for `CCc1cc2ccc([C@](C)(C#N)C[C@@H]3CCc4cc(C)ccc4O3)cc2[nH]c1=O` [Compound 251], 192 °C.
`CCc1cc2ccc([C@@](C)(C#N)C[C@@H]3CCc4cc(C)ccc4O3)cc2[nH]c1=O` [Compound 252] yielded a melting point of 184 °C.

Another series relates to tubulin. The experiment in a line: Tubulin polymerization assay. Type of series: biochemical. Further details: key: a compound showing 0 to 50% inhibition at 20 μM is reported as score 1; Score 2 compounds are defined as compound showing more than 50% inhibition at 20 μM and less than 50% inhibition at 5 μM; a compound showing more than 50% inhibition at 5 μM is reported as score 3. As to conditions: tested at 20 μM and 5 μM. As for the experimental part:
The tubulin polymerization assay is an adaptation of an assay originally described by Bonne, D. et al. (J. Biol. Chem., 1985, 260:2819-25). The assay kit was purchased from Cytoskeleton, Inc. (catalogue number BK011) and the assay was performed as described by the supplier with the following modifications. The assay was run in a 384-well black Proxiplate (Perkin Elmer) and volumes were adapted accordingly. The reactions were carried out in a final volume of 10 μl. Compounds were added to 25 μl of the reaction mix in 96-well PP plates (Corning) on ice and 10 μl of this mixture was dispensed into duplicates of the 384-well Proxiplates pre-warmed to 37° C. in a Fluoroskan Ascent plate reader (Thermo Scientific). Fluorescence measurements were taken every minute for one hour. The maximum slope of each well was determined (linear regression through 4 consecutive points) and polymerization was calculated as a percentage of polymerization observed in the absence of compound. Compounds were first measured at a concentration of 20 μM and then at 5 μM for those showing more than 50% inhibition at 20 μM as compared to the polymerization observed in the absence of compound. Results are reported in Table F-2 as scores defined as: a compound showing 0 to 50% inhibition at 20 μM is reported as score 1; a compound showing more than 50% inhibition at 5 μM is reported as score 3.
For `CCc1cc2ccc([C@@](C)(C#N)CCOc3ccccc3)cc2[nH]c1=O` (single isomer, unassigned) [Compound 150], the tubulin polymerisation score is 2.
The same measure, in the same setting: in the case of `CCc1cc2ccc(C(C)(C#N)Cc3ccccc3F)cc2[nH]c1=O` (stereo not drawn) [Compound 106] it was 1 (a compound showing 0 to 50% inhibition at 20 μM is reported as score 1); in that of `CCc1cc2ccc(C(C)(C#N)Cc3cccc(C(F)(F)F)c3)cc2[nH]c1=O` (stereo not drawn) [Compound 109], 2.
Take `CCc1cc2ccc(C(C)(C#N)Cc3cccc(F)c3)cc2[nH]c1=O` (stereo not drawn) [Compound 112]: the tubulin polymerisation score is 1 (a compound showing 0 to 50% inhibition at 20 μM is reported as score 1).
Same read-out and setting: in the case of `CCc1cc2ccc(C(C)(C#N)Cc3cccc(OC)c3)cc2[nH]c1=O` (stereo not drawn) [Compound 113] it was 2.
`CCc1cc2ccc(C(C)(C#N)Cc3ccc(F)cc3)cc2[nH]c1=O` (stereo not drawn) [Compound 115] returned a tubulin polymerisation score of 2.
As to `CCc1cc2ccc(C(C)(C#N)Cc3ccc(C)cc3)cc2[nH]c1=O` (stereo not drawn) [Compound 117], the tubulin polymerisation score amounted to 2.
Still for that read-out and setting: in the case of `CCc1cc2ccc(C(C)(C#N)Cc3cc(F)cc(Cl)c3)cc2[nH]c1=O` (stereo not drawn) [Compound 126] it was 2; in that of `CCc1cc2ccc(C(C)(C#N)Cc3cc(F)cc(F)c3)cc2[nH]c1=O` (stereo not drawn) [Compound 128], 1 (a compound showing 0 to 50% inhibition at 20 μM is reported as score 1); in that of `CCc1cc2ccc(C(C)(C#N)Cc3cccc(Cl)c3F)cc2[nH]c1=O` (stereo not drawn) [Compound 130], 2.
On the same count and under the same terms, as for `CCc1cc2ccc(C(C)(C#N)Cc3ccc(F)cc3F)cc2[nH]c1=O` (stereo not drawn) [Compound 137], the figure is 1 (a compound showing 0 to 50% inhibition at 20 μM is reported as score 1); as for `CCc1cc2ccc(C(C)(C#N)Cc3c(F)cccc3F)cc2[nH]c1=O` (stereo not drawn) [Compound 138], 1 (a compound showing 0 to 50% inhibition at 20 μM is reported as score 1).
The same measure, in the same setting: as for `CCc1cc2ccc(C(C)(C#N)CCOc3cccc(C)c3)cc2[nH]c1=O` (stereo not drawn) [Compound 143], the figure is 2.
For `CCc1cc2ccc(C(C)(C#N)CCOc3ccccc3C)cc2[nH]c1=O` (stereo not drawn) [Compound 148], the tubulin polymerisation score was 1 (a compound showing 0 to 50% inhibition at 20 μM is reported as score 1).
On the same count and under the same terms, in the case of `CCc1cc2ccc(C(C)(C#N)CCOc3ccc(C)cc3)cc2[nH]c1=O` (stereo not drawn) [Compound 149] it was 2.
Compound `CCc1cc2ccc(C(C)(C#N)CCOc3cccc(Cl)c3)cc2[nH]c1=O` (stereo not drawn) [Compound 151] returned a tubulin polymerisation score of 2.
The same measure, in the same setting: in the case of `CCc1cc2ccc(C(C)(C#N)CCOc3ccccc3Cl)cc2[nH]c1=O` (stereo not drawn) [Compound 152] it was 2; in that of `CCc1cc2ccc(C(C)(C#N)CCOc3ccccc3Br)cc2[nH]c1=O` (stereo not drawn) [Compound 153], 2; in that of `CCc1cc2ccc(C(C)(C#N)CCOc3ccc(C#N)cc3)cc2[nH]c1=O` (stereo not drawn) [Compound 161], 2.
Compound `CCc1cc2ccc(C(C)(C#N)CCOc3cccc4c3OCCO4)cc2[nH]c1=O` (stereo not drawn) [Compound 163] displayed a tubulin polymerisation score of 2.
